Laboratory results reported in ChEMBL document CHEMBL5113526, “Design, Synthesis, and Biological Evaluation of Androgen Receptor Degrading and Antagonizing Bifunctional Steroidal Analogs for the Treatment of Advanced Prostate Cancer” (J Med Chem, 2022).

What was measured:
[1] = system: LNCaP; experiment: Antiproliferative activity against human LNCAP cells assessed as reduction in cell viability at 10 uM measured after 6 days by CellTiterGlo assay relative to control; assay type: functional; conditions: Homo sapiens, LNCaP, time 6 day
[2] = system: LNCaP; experiment: cells; conditions: Homo sapiens
Description: Antiproliferative activity against human LNCAP cells assessed as reduction in cell viability measured after 6 days by CellTiter-Glo assay

[3] = molecular target: T1, Androgen receptor (Homo sapiens, UniProt P10275); experiment: Induction of AR degradation in human LNCap cells incubated for 24 hrs by sandwich ELISA analysis; assay type: cell-based
T1 sequence (P10275 whole entry): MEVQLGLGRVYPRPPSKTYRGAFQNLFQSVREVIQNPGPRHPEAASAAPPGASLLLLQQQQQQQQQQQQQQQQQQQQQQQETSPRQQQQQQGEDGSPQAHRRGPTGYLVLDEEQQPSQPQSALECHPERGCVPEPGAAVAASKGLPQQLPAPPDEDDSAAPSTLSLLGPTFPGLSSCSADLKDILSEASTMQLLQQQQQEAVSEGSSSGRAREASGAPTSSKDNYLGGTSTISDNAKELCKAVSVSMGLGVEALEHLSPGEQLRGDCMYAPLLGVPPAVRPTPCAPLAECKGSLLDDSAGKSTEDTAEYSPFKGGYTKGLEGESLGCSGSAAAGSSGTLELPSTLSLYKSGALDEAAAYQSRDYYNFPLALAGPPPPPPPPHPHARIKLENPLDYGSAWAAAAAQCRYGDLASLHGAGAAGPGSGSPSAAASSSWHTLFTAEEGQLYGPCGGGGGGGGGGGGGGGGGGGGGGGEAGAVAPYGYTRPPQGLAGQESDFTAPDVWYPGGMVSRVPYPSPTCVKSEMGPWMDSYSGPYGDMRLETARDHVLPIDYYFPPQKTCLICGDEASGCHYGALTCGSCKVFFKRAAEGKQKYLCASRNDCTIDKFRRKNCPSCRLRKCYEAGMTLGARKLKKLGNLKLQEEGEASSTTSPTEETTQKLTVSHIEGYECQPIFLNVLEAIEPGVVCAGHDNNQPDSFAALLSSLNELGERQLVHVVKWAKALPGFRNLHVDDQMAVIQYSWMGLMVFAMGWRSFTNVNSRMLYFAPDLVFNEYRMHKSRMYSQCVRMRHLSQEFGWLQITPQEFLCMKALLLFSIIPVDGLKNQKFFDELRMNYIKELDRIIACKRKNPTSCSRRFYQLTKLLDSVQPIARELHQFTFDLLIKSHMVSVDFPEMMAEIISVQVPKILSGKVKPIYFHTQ

[4] = molecular target: T1, Androgen receptor; experiment: Antagonist activity at DHT-induced Androgen receptor transcriptional activity in human HEK293 cells measured after 24 hrs by Steady-Glo reagent based assay; assay type: cell-based
[5] = Tmax in Sprague-Dawley rat at 10 mg/kg, po measured up to 24 hrs by LC-MS/MS analysis; assay type: ADME, organism-based; conditions: in vivo
[6] = Cmax in Sprague-Dawley rat at 10 mg/kg, po measured up to 24 hrs by LC-MS/MS analysis; assay type: ADME, organism-based; design: dose 10 mg/kg, time < 24 hrs, route po; conditions: in vivo
[7] = Terminal half life in Sprague-Dawley rat at 10 mg/kg, po measured up to 24 hrs by LC-MS/MS analysis; assay type: ADME, organism-based; conditions: in vivo, read-out: beta t1/2 (converted)
[8] = AUC (0 to t) in Sprague-Dawley rat at 10 mg/kg, po measured up to 24 hrs by LC-MS/MS analysis; assay type: ADME, organism-based; design: time < 24 hrs, dose 10 mg/kg, route po; conditions: in vivo
[9] = molecular target: T2, Steroid 17-alpha-hydroxylase/17,20 lyase (Homo sapiens, UniProt P05093); experiment: Inhibition of human recombinant CYP17A1 incubated for 5 mins in presence of NADPH by LC-MS/MS analysis; assay type: ADME
T2 sequence (P05093 whole entry): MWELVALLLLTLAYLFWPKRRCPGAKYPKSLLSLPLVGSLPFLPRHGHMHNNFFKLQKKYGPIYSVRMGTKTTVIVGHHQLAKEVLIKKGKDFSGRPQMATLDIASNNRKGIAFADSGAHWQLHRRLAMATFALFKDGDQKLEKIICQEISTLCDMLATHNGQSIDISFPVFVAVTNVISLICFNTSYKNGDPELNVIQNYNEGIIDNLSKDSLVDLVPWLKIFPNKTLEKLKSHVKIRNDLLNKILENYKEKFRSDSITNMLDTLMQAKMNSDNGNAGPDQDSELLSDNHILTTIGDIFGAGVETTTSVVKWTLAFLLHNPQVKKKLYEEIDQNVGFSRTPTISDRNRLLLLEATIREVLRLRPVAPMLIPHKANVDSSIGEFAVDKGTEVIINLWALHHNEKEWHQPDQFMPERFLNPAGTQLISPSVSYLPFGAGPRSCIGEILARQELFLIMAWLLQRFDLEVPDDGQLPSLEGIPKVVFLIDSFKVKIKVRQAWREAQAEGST

C[C@]12CC[C@H](NC(=O)c3cccnc3)CC1=CC[C@@H]1[C@@H]2CC[C@]2(C)C(n3ccnn3)=CC[C@@H]12
inhibition at 10 µM [1]: 76.2%
IC50 [2]: 1390 nM

C[C@]12CC[C@H](NC(=O)c3ccncc3)CC1=CC[C@@H]1[C@@H]2CC[C@]2(C)C(n3cnc4ccccc43)=CC[C@@H]12
inhibition at 10 µM [1]: 104%
IC50 [2]: 763 nM
DC50 [3]: 3760 nM
IC50 [4]: 1550 nM

C[C@]12CC[C@H](NC(=O)c3ccnnc3)CC1=CC[C@@H]1[C@@H]2CC[C@]2(C)C(c3cncnc3)=CC[C@@H]12
inhibition at 10 µM [1]: 99.7%
IC50 [2]: 820 nM

C[C@]12CC[C@H](NC(=O)c3cccnn3)CC1=CC[C@@H]1[C@@H]2CC[C@]2(C)C(n3cnc4ccccc43)=CC[C@@H]12
IC50 [2]: 2250 nM

Cc1cncc(C2=CC[C@H]3[C@@H]4CC=C5C[C@@H](NC(=O)c6cccnc6)CC[C@]5(C)[C@H]4CC[C@]23C)c1
inhibition at 10 µM [1]: 90.3%
IC50 [2]: 2430 nM

C[C@]12CC[C@H](O)C[C@@H]1[C@H](Oc1ccncn1)C[C@@H]1[C@@H]2CC[C@]2(C)C(c3cccnc3)=CC[C@@H]12
inhibition at 10 µM [1]: 91.3%
IC50 [2]: 3160 nM

Cc1cn(C2=CC[C@H]3[C@@H]4CC=C5C[C@@H](NC(=O)c6ccnnc6)CC[C@]5(C)[C@H]4CC[C@]23C)cn1
Tmax [5]: 4.67 h
inhibition at 10 µM [1]: 97%
IC50 [2]: 466 nM
Cmax [6]: 802 ng/mL
DC50 [3]: 2080 nM
half-life [7]: 3.58 h
AUC(0-t) at 24 h [8]: 5620 ng·h/mL
IC50 [9]: > 3000 nM
IC50 [4]: 244 nM

Cn1cncc1S(=O)(=O)N[C@H]1CC[C@@]2(C)C(=CC[C@@H]3[C@@H]2CC[C@]2(C)C(n4cnc5ccccc54)=CC[C@@H]32)C1
inhibition at 10 µM [1]: 100%
IC50 [2]: 7200 nM

C[C@]12CC[C@H](NC(=O)c3cccnc3)CC1=CC[C@@H]1[C@@H]2CC[C@]2(C)C(c3cncnc3)=CC[C@@H]12
IC50 [2]: > 10000 nM

C[C@]12CC[C@H](NC(=O)c3ccncn3)CC1=CC[C@@H]1[C@@H]2CC[C@]2(C)C(n3cnc4ccccc43)=CC[C@@H]12
inhibition at 10 µM [1]: 101%
IC50 [2]: 1420 nM

C[C@]12CC[C@H](NCc3ccncc3)CC1=CC[C@@H]1[C@@H]2CC[C@]2(C)C(n3cnc4ccccc43)=CC[C@@H]12
inhibition at 10 µM [1]: 111%
IC50 [2]: 2380 nM

C[C@]12CC[C@H](NC(=O)c3ccncc3)CC1=CC[C@@H]1[C@@H]2CC[C@]2(C)C(c3cncc(F)c3)=CC[C@@H]12
inhibition at 10 µM [1]: 104%
IC50 [2]: 1010 nM

COc1cncc(C2=CC[C@H]3[C@@H]4CC=C5C[C@@H](NC(=O)c6cccnc6)CC[C@]5(C)[C@H]4CC[C@]23C)c1
IC50 [2]: > 10000 nM

CO/N=C1\C[C@@H]2[C@H](CC[C@]3(C)C(c4cccnc4)=CC[C@@H]23)[C@@]2(C)CC[C@H](O)C[C@H]12
inhibition at 10 µM [1]: 100%
IC50 [2]: 8120 nM

C[C@]12CC[C@H](O)C[C@@H]1[C@H](CO)C[C@@H]1[C@@H]2CC[C@]2(C)C(c3cccnc3)=CC[C@@H]12
inhibition at 10 µM [1]: 88.5%
IC50 [2]: 2830 nM

C[C@]12CC[C@H](O)CC1=CC[C@@H]1[C@@H]2CC[C@]2(C)C(n3cnc4ccccc43)=CC[C@@H]12 [GALETERONE]
inhibition at 10 µM [1]: 110%
IC50 [2]: 3550 nM
IC50 [9]: 16 nM

C[C@]12CC[C@H](NS(=O)(=O)c3cccnc3)CC1=CC[C@@H]1[C@@H]2CC[C@]2(C)C(n3cnc4ccccc43)=CC[C@@H]12
inhibition at 10 µM [1]: 93.3%
IC50 [2]: 1640 nM
